Measured values as given in PMC4335020, “Single Oral Dose Pharmacokinetics of Decursin and Decursinol Angelate in Healthy Adult Men and Women” (PLoS ONE, 2015).
Read-outs that look alike come from different tables or passages of the source.

Assay: Single oral dose human plasma pharmacokinetics of D, DA and DOH after Cogni.Q
Type: in vivo
Details: for Cmax / Tmax / half-life / AUC(0-t): plasma
Excerpt: Ten healthy male and 10 female subjects were recruited by public announcement in Amarillo, TX, from January 2013 to April 2013 (see Fig. 1 CONSORT diagram). The sample size for each gender was chosen without power calculation due to the lack of prior knowledge of PK parameter variance in humans. After receiving informed consent verbally and in writing, the health status of each candidate was confirmed by health questionnaire, plasma biochemistry (hepatic and renal functions), complete blood cell count (CBC), and a physical examination by a participating academic physician. Subjects with diabetes, or pregnant, perinatal and breastfeeding women were excluded. For the 48 hours preceding study visit until the final blood draw, all subjects were instructed to avoid taking any prescription or nonprescription drugs, vitamins, and herbal/dietary supplements. Each subject was compensated for participating in the study per TTUHSC IRB approved rate.
Eligible subjects arrived at our clinical facility at 0700 (7:00 am) on the test day after a fast beginning at 2200 (10:00 pm) the previous night. After a brief review of vital signs, the nurse placed an intravenous (IV) line with saline drip in one arm of each subject. A baseline pre-dose (hour 0) blood sample was drawn through the IV line; after that subjects swallowed four Cogni.Q vegicaps with 240 mL of water at hour 0 under direct supervision. Subjects stayed at the clinical facility in their room for the next 12 hours, returning at 24 and 48 hours. Blood was drawn at baseline (hour 0) and at 0.5, 1, 2, 3, 4, 6, 8, 12, 24 and 48 hours after dosing into Vacutainer Blood Collection Tube (Becton-Dickinson, Franklin Lakes, NJ. Product Number: 367874, Sodium heparin was used as anti-coagulant). Water was allowed as desired except for within the first hour after Cogni.Q consumption. All subjects received standardized meals at post-dose hours 4.5 and 9.5 but no food was allowed for at least the first 4 hours post-dose.
Plasma was prepared by centrifuging the heparinized blood at 1000 g for 15 minutes at room temperature. Urine samples (40mL) were collected within time spans of 0–4, 4–8, 8–12 and 12–24 hours (total volume of urine was recorded). All plasma and urine samples were put on dry ice immediately and then stored at -80°C freezer until analysis.
Plasma samples were extracted with a validated solid supported liquid extraction (SLE) method facilitated with a positive pressure manifold (Biotage, Charlotte, NC). Briefly, 100 μL of plasma sample was spiked with 5 μL of 10 ng/μL prednisolone (IS), diluted with 200 μL of LC-MS grade water, mixed and loaded onto ISOLUTE SLE+ 400 μL Array Well cartridges (Biotage, Charlotte, NC). A pulse of minimum positive pressure was applied to facilitate the samples absorption into the cartridges. After the samples were allowed to absorb for 5 min, the compounds were eluted with 2×500 μL tert-butyl methyl ether. The eluent was dried in a Speedvac and the resulting residue was reconstituted in 50 μL of methanol for UHPLC-MS/MS analysis.
Eight-point calibration curves were constructed for D, DA and DOH, at concentrations of 0.1, 0.5, 1, 5, 10, 20, 50 and 100 μg/L for D and DA, and at concentrations of 1, 5, 10, 50, 100, 200, 500 and 1000 μg/L for DOH, respectively. The linear range was 0.1–100 μg/L (0.3–300 nmol/L), 0.1–100 μg/L (0.3–300 nmol/L) and 1–1000 μg/L (4–4000 nmol/L) for D, DA and DOH, respectively. The inter- and intra-assay CV were lower than 6.5% and the accuracy was between 90–105%. Calibration curve was run for each batch of samples analyzed. The mean calibration curve correlation coefficient (r) for D, DA and DOH was 0.999, 0.999 and 0.998, respectively (data from 7–10 calibration curves). In addition, 70% of the plasma samples were extracted and analyzed twice, the data from two replicate analyses were nearly identical and combined for final data analyses and presentation. […]

## C/C=C(/C)C(=O)O[C@H]1Cc2cc3ccc(=O)oc3cc2OC1(C)C [DA, decursinol angelate]
All human subjects n = 20, single oral dose 4 Cogni.Q vegicaps (119 mg D, 77 mg DA), read-out: Cmax, nmol/L Mean (SD)
  Cmax: 48.1 nmol/L
All subjects
  variation in C max and AUC0–48h among individual subjects: ≤ 60 fold
Both sexes, human, oral, 4 Cogni.Q vegicaps, n=20 (S1 Table), read-out: Cmax, nM, Grand Mean
  Cmax: 48.1 nmol/L
Both sexes, human, oral, 4 Cogni.Q vegicaps, n=20 (S1 Table), read-out: Tmax, h, Grand Mean
  Tmax: 2.4 h
Both sexes, human, oral, all subjects, outliers excluded (S1 Table), read-out: Terminal t1/2, h, Grand Mean (converted)
  half-life: 19.3 h
Both sexes, human, oral, n=20 (S1 Table), read-out: AUC0-48h, Grand Mean
  AUC(0-t): 335 nmol·h/L
Both sexes, human, po, all human subjects n = 20, single oral dose 4 Cogni.Q vegicaps (119 mg D, 77 mg DA), read-out: Cmax, nmol/L Mean (SD)
  Cmax: 48 nmol/L
Both sexes, human, po, all human subjects n = 20, single oral dose 4 Cogni.Q vegicaps (119 mg D, 77 mg DA), read-out: Tmax, h, Mean (SD)
  Tmax: 2.4 h
Both sexes, human, po, all human subjects n = 20, single oral dose Cogni.Q, plasma (Table 2), read-out: AUC0–48h, nmol/L, Mean (SD)
  AUC(0-t): 335 nmol·h/L
Both sexes, human, po, all human subjects, four outlier subjects excluded, single oral dose Cogni.Q, read-out: Terminal t1/2, h, Mean (SD) (converted)
  half-life: 19.3 h
Both sexes, human, po, twenty healthy subjects, single oral dose Cogni.Q, plasma (abstract), read-out: mean area under the curve (AUC0-48h)
  AUC(0-t): 335 nmol·h/L
female, human, oral, 4 Cogni.Q vegicaps, Women n=10 (S1 Table), read-out: AUC0-48h, Mean, F
  AUC(0-t): 344 nmol·h/L
female, human, oral, 4 Cogni.Q vegicaps, Women n=10 (S1 Table), read-out: Cmax, nM, Mean, F
  Cmax: 43.9 nmol/L
female, human, oral, Women n=10 (S1 Table), read-out: Tmax, h, Mean, F
  Tmax: 2.7 h
female, human, oral, Women, outliers excluded (S1 Table), read-out: Terminal t1/2, h, Mean, F (converted)
  half-life: 23.7 h
female, human, po, Women N = 10, single oral dose Cogni.Q, read-out: AUC0–48h, h.nmol/L Mean (SD)
  AUC(0-t): 344 nmol·h/L
female, human, po, Women N = 10, single oral dose Cogni.Q, read-out: Cmax, nmol/L, Mean (SD)
  Cmax: 43.9 nmol/L
female, human, po, Women N = 10, single oral dose Cogni.Q, read-out: Tmax, h, Mean (SD)
  Tmax: 2.7 h
female, human, po, Women, outlier subjects excluded, single oral dose Cogni.Q, read-out: T1/2, h, terminal Mean (SD) (converted)
  half-life: 23.7 h
human, oral, 4 Cogni.Q vegicaps, subject S1 (115 lb), outlier, excluded from means, read-out: Terminal t1/2, h (converted)
  half-life: 20.2 h
human, oral, 4 Cogni.Q vegicaps, subject S1 (115 lb), read-out: AUC0-48h
  AUC(0-t): 190 nmol·h/L
human, oral, 4 Cogni.Q vegicaps, subject S1 (115 lb), read-out: Cmax
  Cmax: 23.4 nmol/L
human, oral, 4 Cogni.Q vegicaps, subject S1 (115 lb), read-out: Tmax
  Tmax: 2 h
human, oral, 4 Cogni.Q vegicaps, subject S2 (194 lb), read-out: AUC0-48h
  AUC(0-t): 97.5 nmol·h/L
human, oral, 4 Cogni.Q vegicaps, subject S2 (194 lb), read-out: Cmax
  Cmax: 13.4 nmol/L
human, oral, 4 Cogni.Q vegicaps, subject S2 (194 lb), read-out: Terminal t1/2, h (converted)
  half-life: 38.6 h
human, oral, 4 Cogni.Q vegicaps, subject S2 (194 lb), read-out: Tmax
  Tmax: 3 h
human, oral, 4 Cogni.Q vegicaps, subject S3 (170 lb), outlier, excluded from means, read-out: Terminal t1/2, h (converted)
  half-life: 31.4 h
human, oral, 4 Cogni.Q vegicaps, subject S3 (170 lb), read-out: AUC0-48h
  AUC(0-t): 142 nmol·h/L
human, oral, 4 Cogni.Q vegicaps, subject S3 (170 lb), read-out: Cmax
  Cmax: 27.2 nmol/L
human, oral, 4 Cogni.Q vegicaps, subject S3 (170 lb), read-out: Tmax
  Tmax: 6 h
human, oral, 4 Cogni.Q vegicaps, subject S4 (170 lb), read-out: AUC0-48h
  AUC(0-t): 1060 nmol·h/L
human, oral, 4 Cogni.Q vegicaps, subject S4 (170 lb), read-out: Cmax
  Cmax: 100 nmol/L
human, oral, 4 Cogni.Q vegicaps, subject S4 (170 lb), read-out: Terminal t1/2, h (converted)
  half-life: 17.7 h
human, oral, 4 Cogni.Q vegicaps, subject S4 (170 lb), read-out: Tmax
  Tmax: 2 h
human, oral, 4 Cogni.Q vegicaps, subject S5 (161 lb), read-out: AUC0-48h
  AUC(0-t): 294 nmol·h/L
human, oral, 4 Cogni.Q vegicaps, subject S5 (161 lb), read-out: Cmax
  Cmax: 21.4 nmol/L
human, oral, 4 Cogni.Q vegicaps, subject S5 (161 lb), read-out: Terminal t1/2, h (converted)
  half-life: 12 h
human, oral, 4 Cogni.Q vegicaps, subject S5 (161 lb), read-out: Tmax
  Tmax: 1 h
human, oral, 4 Cogni.Q vegicaps, subject S6 (120 lb), read-out: AUC0-48h
  AUC(0-t): 696 nmol·h/L
human, oral, 4 Cogni.Q vegicaps, subject S6 (120 lb), read-out: Cmax
  Cmax: 84.3 nmol/L
human, oral, 4 Cogni.Q vegicaps, subject S6 (120 lb), read-out: Terminal t1/2, h (converted)
  half-life: 16.2 h
human, oral, 4 Cogni.Q vegicaps, subject S6 (120 lb), read-out: Tmax
  Tmax: 3 h
human, oral, 4 Cogni.Q vegicaps, subject S7 (180 lb), read-out: AUC0-48h
  AUC(0-t): 432 nmol·h/L
human, oral, 4 Cogni.Q vegicaps, subject S7 (180 lb), read-out: Cmax
  Cmax: 74.3 nmol/L
human, oral, 4 Cogni.Q vegicaps, subject S7 (180 lb), read-out: Terminal t1/2, h (converted)
  half-life: 17.4 h
human, oral, 4 Cogni.Q vegicaps, subject S7 (180 lb), read-out: Tmax
  Tmax: 4 h
human, oral, 4 Cogni.Q vegicaps, subject S8 (160 lb), read-out: AUC0-48h
  AUC(0-t): 1600 nmol·h/L
human, oral, 4 Cogni.Q vegicaps, subject S8 (160 lb), read-out: Cmax
  Cmax: 183 nmol/L
human, oral, 4 Cogni.Q vegicaps, subject S8 (160 lb), read-out: Terminal t1/2, h (converted)
  half-life: 16.7 h
human, oral, 4 Cogni.Q vegicaps, subject S8 (160 lb), read-out: Tmax
  Tmax: 3 h
human, oral, 4 Cogni.Q vegicaps, subject S9 (158 lb), read-out: AUC0-48h
  AUC(0-t): 80.8 nmol·h/L
human, oral, 4 Cogni.Q vegicaps, subject S9 (158 lb), read-out: Cmax
  Cmax: 13.6 nmol/L
human, oral, 4 Cogni.Q vegicaps, subject S9 (158 lb), read-out: Terminal t1/2, h (converted)
  half-life: 19.1 h
